Laboratory results taken from patent US20220411794A1, “RNA OLIGONUCLEOTIDES FOR PREVENTING AGGREGATION OF PROTEINS” (Universitaet Wien, priority 2019, published 2022).

Target: T1, human insulin (Homo sapiens, UniProt P01308)
T1 construct: purchased SIGMA
Assay: Human insulin aggregation assay (relative solubility)
Type: physicochemical
Conditions: 86 μM insulin : 20 μM RNA (molar ratio […]:1)
Method: The insulin aggregation assay was performed in 150 mM Tris-HCl pH 7.5. Aggregation was monitored at 360 nm (excitation: 1 nm bandwidth, emission: 10 nm bandwidth) in macro-cuvettes (1500 μl) with a pathlength of 10 mm. 86 μM human insulin (SIGMA) with or without 20 μM RNA were pre-incubated at 30° C. and the aggregation reaction was started by the addition of dithiothreitol (DTT) to a final concentration of 15 mM.

T1 sequence (P01308 25-54 limits assumed): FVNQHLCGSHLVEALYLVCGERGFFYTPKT

RNA1: GUGGAGGCGCUGUACCUGGUGUGCGGAGAGCGCGGC; fragment of native own mRNA coding for insulin β-chain region VEALYLVCGERG (RNA, backbone not given here)
increase in the relative solubility of insulin: 21%
